# Source: ChEMBL document CHEMBL1201862, “PubChem BioAssay data set” (2004)
#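 Following 48 hours of exposure in 96-well plates, responses at five concentrations were used to interpolate endpoints linearly. GI50 = concentration required for 50% inhibition of growth.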 Active and inactive are the calls of the source. Rule as the data show it: active = GI50 up to about 1.1 µM and inactive = higher.
# How the values were obtained:
# Test in all cases: NCI tumour cell line growth inhibition, 48 h
# [1] = tested on: SW-620
# [2] = tested on: OVCAR-8
# [3] = tested on: 786-0
# [4] = tested on: SK-MEL-5
# [5] = tested on: HOP-92
# [6] = tested on: U-251
# [7] = tested on: SNB-75
# [8] = tested on: MOLT-4
# [9] = tested on: SK-MEL-28
# [10] = tested on: NCI-H23
# [11] = tested on: M14
# [12] = tested on: SNB-78
# [13] = tested on: OVCAR-5
# [14] = tested on: LXFL 529
# [15] = tested on: COLO 205
# [16] = tested on: DMS-114
# [17] = tested on: KM12
# [18] = tested on: A549
# [19] = tested on: Malme-3M
# [20] = tested on: HCC 2998
# [21] = tested on: RXF 393
# [22] = tested on: XF498
# [23] = tested on: NCI-H522
# [24] = tested on: HCT-116
# [25] = tested on: HL-60
# [26] = tested on: DMS-273
# [27] = tested on: EKVX
# [28] = tested on: HT-29
# [29] = tested on: NCI-H460
# [30] = tested on: UACC-62
# [31] = tested on: CCRF-CEM
# [32] = tested on: SK-MEL-2
# [33] = tested on: SF-268
# [34] = tested on: TK-10
# [35] = tested on: KM-20L2
# [36] = tested on: UO-31
# [37] = tested on: RPMI-8226
# [38] = tested on: IGROV-1
# [39] = tested on: SF-295
# [40] = tested on: K562
# [41] = tested on: ACHN
# [42] = tested on: HOP-62
# [43] = tested on: SNB-19
# [44] = tested on: DLD-1
# [45] = tested on: HCT-15
# [46] = tested on: UACC-257
# [47] = tested on: OVCAR-4
# [48] = tested on: OVCAR-3
# [49] = tested on: SN12C
# [50] = tested on: SF-539
# [51] = tested on: M19-MEL
smiles,measurement,setting,value
CC(C)(C)CC(C)(C)c1cc2c(O)c(c1)Cc1cc(C(C)(C)CC(C)(C)C)cc(c1O)Cc1cc(C(C)(C)CC(C)(C)C)cc(c1O)Cc1cc(C(C)(C)CC(C)(C)C)cc(c1O)Cc1cc(C(C)(C)CC(C)(C)C)cc(c1O)C2,GI50,[1],> 100 µM (inactive)
same,GI50,[2],> 100 µM (inactive)
same,GI50,[3],> 100 µM (inactive)
same,GI50,[4],> 100 µM (inactive)
same,GI50,[5],> 100 µM (inactive)
same,GI50,[6],> 100 µM (inactive)
same,GI50,[7],> 100 µM (inactive)
same,GI50,[8],> 100 µM (inactive)
same,GI50,[9],> 100 µM (inactive)
same,GI50,[10],> 100 µM (inactive)
same,GI50,[11],> 100 µM (inactive)
same,GI50,[12],> 100 µM (inactive)
same,GI50,[13],> 100 µM (inactive)
same,GI50,[14],> 100 µM (inactive)
same,GI50,[15],> 100 µM (inactive)
same,GI50,[16],> 100 µM (inactive)
same,GI50,[17],> 100 µM (inactive)
same,GI50,[18],> 100 µM (inactive)
same,GI50,[19],> 100 µM (inactive)
same,GI50,[20],> 100 µM (inactive)
same,GI50,[21],> 100 µM (inactive)
same,GI50,[22],> 100 µM (inactive)
same,GI50,[23],> 100 µM (inactive)
same,GI50,[24],> 100 µM (inactive)
same,GI50,[25],> 100 µM (inactive)
same,GI50,[26],> 100 µM (inactive)
same,GI50,[27],> 100 µM (inactive)
same,GI50,[28],> 100 µM (inactive)
same,GI50,[29],> 100 µM (inactive)
same,GI50,[30],> 100 µM (inactive)
same,GI50,[31],> 100 µM (inactive)
same,GI50,[32],> 100 µM (inactive)
same,GI50,[33],> 100 µM (inactive)
same,GI50,[34],> 100 µM (inactive)
same,GI50,[35],> 100 µM (inactive)
same,GI50,[36],> 100 µM (inactive)
same,GI50,[37],> 100 µM (inactive)
same,GI50,[38],> 100 µM (inactive)
same,GI50,[39],> 100 µM (inactive)
same,GI50,[40],> 100 µM (inactive)
same,GI50,[41],> 100 µM (inactive)
same,GI50,[42],> 100 µM (inactive)
same,GI50,[43],> 100 µM (inactive)
same,GI50,[44],> 100 µM (inactive)
same,GI50,[45],> 100 µM
same,GI50,[46],> 100 µM (inactive)
same,GI50,[47],> 100 µM (inactive)
same,GI50,[48],> 100 µM (inactive)
same,GI50,[49],> 100 µM (inactive)
same,GI50,[50],> 100 µM (inactive)
same,GI50,[51],> 100 µM (inactive)
